The target in this assay is T1, Recombinant human LTC4 synthase (Homo sapiens, UniProt Q16873).
T1 construct: made in house; host or cells: Pichia pastoris ('Piccia pastoralis' [sic])
T1 sequence (Q16873 1-150): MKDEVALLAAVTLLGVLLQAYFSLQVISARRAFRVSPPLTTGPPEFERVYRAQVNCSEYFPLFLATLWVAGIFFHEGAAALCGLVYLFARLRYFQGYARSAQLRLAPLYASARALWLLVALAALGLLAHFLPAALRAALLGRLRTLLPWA
Briefly: LTC4 synthase in vitro assay (LTA4 to LTC4, HTRF detection). As to conditions: for inhibition at 10 µM: 5 min, total concentration of title compound in the assay 10 μM. It counts as biochemical. The method, then:
In the assay, LTC4 synthase catalyses the reaction where the substrate LTA4 is converted to LTC4. Recombinant human LTC4 synthase is expressed in Piccia pastoralis and the purified enzyme is dissolved in 25 mM tris-buffer pH 7.8 supplemented with 0.1 mM glutathione (GSH) and stored at −80° C. The assay is performed in phosphate buffered saline (PBS) pH 7.4 and 5 mM GSH in 384-well plates.
The following is added chronologically to each well:
1.48 μL LTC4 synthase in PBS with 5 mM GSH. The total protein concentration in this solution is 0.5 μg/mL. 2. 1 μL inhibitor in DMSO (final concentration 10 μM). 3. Incubation of the plate at room temperature for 10 min. 4. 1 μL LTA4 (final concentration 2.5 μM). 5. Incubation of the plate at room temperature for 5 min. 6. 10 μL of the incubation mixture is analysed using homogenous time resolved fluorescent (HTRF) detection.
(In general: In TR-FRET formats the signal depends on donor and acceptor labels being close together.)

The term IC50 denotes the concentration that gives 50% inhibition. As usually defined, the inhibition is the drop in the measured response relative to a control, in per cent.

Structures are written as SMILES.

`CON=C(c1ccc(Oc2ccccc2)c(C(=O)O)c1)c1ccc(N(CC2CC2)c2ccc(Cl)cc2)cn1` (mixture of isomers) [Example 13, 5-({5-[(4-Chlorophenyl)(cyclopropylmethyl)amino]-2-pyridyl}(methoxyimino)-methyl)-2-phenoxybenzoic acid]: the IC50 came to 0.242 µM.
In the case of `O=C(O)c1cc(C(=NO)c2ccc(N(CC3CC3)c3ccc(Cl)cc3)cn2)ccc1Oc1ccccc1` (mixture of isomers) [Example 14, 5-({5-[(4-Chlorophenyl)(cyclopropylmethyl)amino]-2-pyridyl}(hydroxyimino)-methyl)-2-phenoxybenzoic acid], the IC50 stood at 1.11 µM.
As to `CN(c1ccc(Cl)cc1)c1ccc(C(=O)c2ccc(Oc3ccccc3)c(C(=O)O)c2)nc1` [1:1, 5-{5-[(4-Chlorophenyl)(methyl)amino]picolinoyl}-2-phenoxybenzoic acid], the IC50 stood at 0.11 µM and the inhibition at 10 µM was 98%.
`CN(c1ccc(Cl)cc1)c1ccc(C(=O)c2ccc(Oc3ccc(F)c(F)c3)c(C(=O)O)c2)nc1` [1:2, 5-{5-[(4-Chlorophenyl)(methyl)amino]picolinoyl}-2-(3,4-difluorophenoxy)benzoic acid]: the IC50 was determined as 0.104 µM and the inhibition at 10 µM was found to be 98%.
With `CN(c1ccc(Cl)cc1)c1ccc(C(=O)c2ccc(Oc3cccc(Cl)c3)c(C(=O)O)c2)nc1` [1:3, 2-(3-Chlorophenoxy)-5-{5-[(4-chlorophenyl)(methyl)amino]picolinoyl}benzoic acid], the IC50 was 0.124 µM and the inhibition at 10 µM was 98%.
As to `O=C(c1ccc(Oc2ccccc2)c(C(=O)O)c1)c1ccc(N(CC2CC2)c2ccc(Cl)cc2)cn1` [1:4, 5-{5-[(4-Chlorophenyl)(cyclopropylmethyl)amino]picolinoyl}-2-phenoxybenzoic acid], the IC50 was 0.062 µM and the inhibition at 10 µM was determined as 100%.
The like results for `O=C(c1ccc(Oc2ccccc2)c(C(=O)O)c1)c1ccc(N(CC2CCC2)c2ccc(Cl)cc2)cn1` [1:5, 5-{5-[(4-Chlorophenyl)(cyclobutylmethyl)amino]picolinoyl}-2-phenoxybenzoic acid] were, in that order, 0.07 µM and 100%.
Regarding `O=C(c1ccc(Oc2ccccc2)c(C(=O)O)c1)c1ccc(N(CC2CCCC2)c2ccc(Cl)cc2)cn1` [1:6, 5-{5-[(4-Chlorophenyl)(cyclopentylmethyl)amino]picolinoyl}-2-phenoxybenzoic acid], the IC50 was 0.061 µM and the inhibition at 10 µM worked out at 100%.
In the case of `CCOCCN(c1ccc(Cl)cc1)c1ccc(C(=O)c2ccc(Oc3ccccc3)c(C(=O)O)c2)nc1` [1:7, 5-{5-[(4-Chlorophenyl)(2-ethoxyethyl)amino]picolinoyl}-2-phenoxybenzoic acid], the IC50 is 0.171 µM and the inhibition at 10 µM is 99%.
The matching figures for `C=CCN(c1ccc(Cl)cc1)c1ccc(C(=O)c2ccc(Oc3ccccc3)c(C(=O)O)c2)nc1` [1:8, 5-{5-[(Allyl)(4-chlorophenyl)amino]picolinoyl}-2-phenoxybenzoic acid]: 0.088 µM and 100%.
For the molecule `C#CCN(c1ccc(Cl)cc1)c1ccc(C(=O)c2ccc(Oc3ccccc3)c(C(=O)O)c2)nc1` [1:9, 5-{5-[(4-Chlorophenyl)(2-propynyl)amino]picolinoyl}-2-phenoxybenzoic acid], the IC50 was 0.048 µM and the inhibition at 10 µM came out at 99%.
For `N#CCCCN(c1ccc(Cl)cc1)c1ccc(C(=O)c2ccc(Oc3ccccc3)c(C(=O)O)c2)nc1` [1:10, 5-{5-[(4-Chlorophenyl)(3-cyanopropyl)amino]picolinoyl}-2-phenoxybenzoic acid], the IC50 was 0.433 µM and the inhibition at 10 µM turned out to be 98%.
`CN(c1ccc(C(=O)c2ccc(Oc3ccccc3)c(C(=O)O)c2)nc1)c1cccc(C(F)(F)F)c1` [1:11, 5-{5-[(Methyl)(3-trifluoromethylphenyl)amino]picolinoyl}-2-phenoxybenzoic acid]: the IC50 is 0.176 µM and the inhibition at 10 µM is 99%.
For the molecule `CCN(c1ccc(C(=O)c2ccc(Oc3ccccc3)c(C(=O)O)c2)nc1)c1cccc(C(F)(F)F)c1` [1:12, 5-{5-[(Ethyl)(3-trifluoromethylphenyl)amino]picolinoyl}-2-phenoxybenzoic acid], the IC50 was determined as 0.247 µM and the inhibition at 10 µM was determined as 100%.
As for `C=CCN(c1ccc(C(F)(F)F)cc1)c1ccc(C(=O)c2ccc(Oc3ccccc3)c(C(=O)O)c2)nc1` [1:13, 5-{5-[(Allyl)(4-trifluoromethylphenyl)amino]picolinoyl}-2-phenoxybenzoic acid], the IC50 amounted to 0.29 µM and the inhibition at 10 µM was found to be 99%.
The matching figures for `O=C(c1ccc(Oc2ccccc2)c(C(=O)O)c1)c1ccc(N(CC2CC2)c2cccc(C(F)(F)F)c2)cn1` [1:14, 5-{5-[(Cyclopropylmethyl)(3-trifluoromethylphenyl)amino]picolinoyl}-2-phenoxybenzoic acid]: 0.197 µM and 100%.
On to `CN(c1ccc(C(F)(F)F)cc1)c1ccc(C(=O)c2ccc(Oc3ccccc3)c(C(=O)O)c2)nc1` [1:15, 5-{5-[(Methyl)(4-trifluoromethylphenyl)amino]picolinoyl}-2-phenoxybenzoic acid], for which the IC50 turned out to be 0.465 µM and the inhibition at 10 µM was found to be 99%.
For the molecule `CN(c1ccc(C(=O)c2ccc(Oc3ccccc3)c(C(=O)O)c2)nc1)c1ccc(F)c(F)c1` [1:16, 5-{5-[(3,4-Difluorophenyl)(methyl)amino]picolinoyl}-2-phenoxybenzoic acid], the IC50 was 0.387 µM and the inhibition at 10 µM worked out at 98%.
The matching figures for `CN(c1ccc(C(C)(C)C)cc1)c1ccc(C(=O)c2ccc(Oc3ccccc3)c(C(=O)O)c2)nc1` [1:17, 5-{5-[(4-tert-Butylphenyl)(methyl)amino]picolinoyl}-2-phenoxybenzoic acid]: 1.31 µM and 96%.
The like results for `O=C(c1ccc(Oc2ccccc2)c(C(=O)O)c1)c1ccc(N(CC2CC2)c2ccc(C(F)(F)F)cc2)cn1` [1:18, 5-{5-[(Cycloropylmethyl)(4-trifluoromethylphenyl)amino]picolinoyl}-2-phenoxybenzoic acid] were, in that order, 0.141 µM and 100%.
With `O=C(c1ccc(Oc2ccccc2)c(C(=O)O)c1)c1ccc(N(CC2CC2)c2ccc(F)c(F)c2)cn1` [1:19, 5-{5-[(Cyclopropylmethyl)(3,4-difluorophenyl)amino]picolinoyl}-2-phenoxybenzoic acid], the IC50 was found to be 0.13 µM and the inhibition at 10 µM stood at 100%.
Regarding `CC(C)(C)c1ccc(N(CC2CC2)c2ccc(C(=O)c3ccc(Oc4ccccc4)c(C(=O)O)c3)nc2)cc1` [1:20, 5-{5-[(4-tert-Butylphenyl)(cyclopropylmethyl)amino]picolinoyl}-2-phenoxybenzoic acid], the IC50 worked out at 0.549 µM and the inhibition at 10 µM was determined as 100%.
The like results for `C=CCN(c1ccc(C(=O)c2ccc(Oc3ccccc3)c(C(=O)O)c2)nc1)c1ccc(F)c(F)c1` [1:21, 5-{5-[(Allyl)(3,4-difluorophenyl)amino]picolinoyl}-2-phenoxybenzoic acid] were, in that order, 0.295 µM and 99%.
`CCN(c1ccc(C(C)(C)C)cc1)c1ccc(C(=O)c2ccc(Oc3ccccc3)c(C(=O)O)c2)nc1` [1:22, 5-{5-[(4-tert-Butylphenyl)(ethyl)amino]picolinoyl}-2-phenoxybenzoic acid]: the IC50 was determined as 1.24 µM and the inhibition at 10 µM turned out to be 99%.
As to `CSc1ccccc1Oc1ccc(C(=O)c2ccc(N(C)c3ccc(Cl)cc3)cn2)cc1C(=O)O` [1:23, 5-{5-[(4-Chlorophenyl)(methyl)amino]picolinoyl}-2-(2-methylsulfanylphenoxy)benzoic acid], the IC50 was determined as 0.362 µM and the inhibition at 10 µM is 100%.
With `CN(c1ccc(Cl)cc1)c1ccc(C(=O)c2ccc(Oc3cccnc3)c(C(=O)O)c2)nc1` [1:24, 5-{5-[(4-Chlorophenyl)(methyl)amino]picolinoyl}-2-(3-pyridyloxy)benzoic acid], the IC50 was found to be 1.14 µM and the inhibition at 10 µM worked out at 86%.
In the case of `COc1ccc(Oc2ccc(C(=O)c3ccc(N(CC4CC4)c4ccc(Cl)cc4)cn3)cc2C(=O)O)cc1` [1:25, 5-{5-[(4-Chlorophenyl)(cyclopropylmethyl)amino]picolinoyl}-2-(4-methoxyphenoxy)benzoic acid], the IC50 was found to be 0.094 µM.
Same read-out and setting: the value for `O=C(c1ccc(Oc2ccc(Cl)c(Cl)c2)c(C(=O)O)c1)c1ccc(N(CC2CC2)c2ccc(Cl)cc2)cn1` [1:26, 5-{5-[(4-Chlorophenyl)(cyclopropylmethyl)amino]picolinoyl}-2-(3,4-dichlorophenoxy)benzoic acid] was 0.072 µM; that for `O=C(c1ccc(Oc2ccc(F)cc2)c(C(=O)O)c1)c1ccc(N(CC2CC2)c2ccc(Cl)cc2)cn1` [1:27, 5-{5-[(4-Chlorophenyl)(cyclopropylmethyl)amino]picolinoyl}-2-(4-fluorophenoxy)-benzoic acid] was 0.052 µM.
As to `O=C(c1ccc(Oc2ccccc2O)c(C(=O)O)c1)c1ccc(N(CC2CC2)c2ccc(Cl)cc2)cn1` [1:28, 5-{5-[(4-Chlorophenyl)(cyclopropylmethyl)amino]picolinoyl}-2-(2-hydroxyphenoxy)benzoic acid], the IC50 was 0.044 µM.
